{
  "source": "patent US20040067218A1",
  "about": "“Extramedullary adipose tissue cells and use thereof for regenerating hematopoietic and muscular tissue” (priority 2001, published 2004)",
  "key": {"[1]": {"test_system": "muscarinic acetylcholine receptors", "experiment": "Spontaneous contractile activity of cardiomyocytes differentiated from vascular stroma cells (muscarinic agents)", "format": "cell-based, mouse", "conditions": "untreated = 100%", "method": "(§1) Cells of the vascular stroma, isolated as described in Example 1.2, are cultured in the methylcellulose-based semi-solid medium as defined above (Example 1.8).\n(§2) The cardiomyocytes are also detected by their spontaneous contractile activity in the presence or absence of agonists or antagonists of muscarinic acetylcholine receptors (carbamylcholine and atropine, respectively) or β-adrenergic receptors (isoproterenol and propranolol, respectively).\n(§3) More precisely, 1 ml of DMEM medium containing carbamylcholine (2 μM), atropine (10 μM), isoproterenol (10 μM) or propranolol (40 μM) is added to the methyl-cellulose-based medium. After incubation for 5 min, necessary for diffusion of the molecules, the excess buffer is removed and the cell contractions are counted under the microscope for one minute.\n(§4) The values correspond to the mean of 3 independent measurements."}, "β-adrenergic receptors": {"test_system": "β-adrenergic receptors", "experiment": "Spontaneous contractile activity of cardiomyocytes differentiated from vascular stroma cells (β-adrenergic agents)", "format": "cell-based, mouse", "conditions": "untreated = 100%", "method": "as §1, §2, §3, §4"}},
  "data": [
    {"molecule": "C[N+](C)(C)CCOC(N)=O.[Cl-]", "note": "[Carbamylcholine, carbamylcholine]", "values": [
      {"measurement": "Contractions", "setting": "[1]; carbamylcholine (2 μM) alone, mean of 3 independent measurements", "result": 53, "unit": "%"}
    ]},
    {"molecule": "CC(C)NCC(O)COc1cccc2ccccc12", "note": "(stereo not shown) [Propranolol, propranolol]", "values": [
      {"measurement": "Contractions", "setting": "β-adrenergic receptors; propranolol (40 μM) added with isoproterenol (10 μM), mean of 3", "result": 100, "unit": "%"}
    ]},
    {"molecule": "CC(C)NCC(O)c1ccc(O)c(O)c1", "note": "(stereo not shown) [Isoproterenol, isoproterenol]", "values": [
      {"measurement": "Contractions", "setting": "β-adrenergic receptors; isoproterenol (10 μM) alone, mean of 3 independent measurements", "result": 160, "unit": "%"}
    ]},
    {"molecule": "CN1[C@@H]2CC[C@H]1C[C@@H](OC(=O)C(CO)c1ccccc1)C2", "note": "(stereo partly shown) [Atropine, atropine]", "values": [
      {"measurement": "Contractions", "setting": "[1]; atropine (10 μM) added with carbamylcholine (2 μM), mean of 3", "result": 106, "unit": "%"}
    ]}
  ]
}
